# Data taken from ChEMBL document CHEMBL4396887, “Five-Membered N-Heterocyclic Scaffolds as Novel Amino Bioisosteres at γ-Aminobutyric Acid (GABA) Type A Receptors and GABA Transporters” (J Med Chem, 2019).
# Activity calls are given as the source filed them. The calls are words filed in the database; no cut-off is given here.
# How the values were obtained:
# Type in all cases: cell-based
# [1] = biological target: T1, Gamma-aminobutyric acid receptor subunit alpha-5/beta-2/gamma-2 (Homo sapiens, UniProt P18507+P31644+P47870); test: Agonist activity at recombinant human GABA-A alpha5beta2gamma2S receptor transiently expressed in human tsA201 cells incubated for 30 mins and measured up to 90 secs by FMP dye based FLIPR membrane potential blue assay
# T1 sequence (P47870 whole entry): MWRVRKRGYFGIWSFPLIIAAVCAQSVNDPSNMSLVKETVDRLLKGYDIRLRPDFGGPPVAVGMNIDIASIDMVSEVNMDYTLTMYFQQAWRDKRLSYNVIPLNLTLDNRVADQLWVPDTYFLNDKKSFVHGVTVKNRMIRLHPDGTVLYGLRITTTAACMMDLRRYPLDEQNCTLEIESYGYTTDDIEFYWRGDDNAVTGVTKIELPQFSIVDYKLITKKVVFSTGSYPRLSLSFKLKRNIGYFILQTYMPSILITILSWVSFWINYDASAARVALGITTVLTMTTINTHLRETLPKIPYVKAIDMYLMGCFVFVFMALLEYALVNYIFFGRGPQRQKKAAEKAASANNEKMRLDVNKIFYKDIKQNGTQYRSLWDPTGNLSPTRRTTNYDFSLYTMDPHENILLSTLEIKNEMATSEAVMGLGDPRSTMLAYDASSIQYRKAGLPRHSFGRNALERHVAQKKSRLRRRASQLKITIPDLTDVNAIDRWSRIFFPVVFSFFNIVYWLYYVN
# T1 sequence (P18507 whole entry): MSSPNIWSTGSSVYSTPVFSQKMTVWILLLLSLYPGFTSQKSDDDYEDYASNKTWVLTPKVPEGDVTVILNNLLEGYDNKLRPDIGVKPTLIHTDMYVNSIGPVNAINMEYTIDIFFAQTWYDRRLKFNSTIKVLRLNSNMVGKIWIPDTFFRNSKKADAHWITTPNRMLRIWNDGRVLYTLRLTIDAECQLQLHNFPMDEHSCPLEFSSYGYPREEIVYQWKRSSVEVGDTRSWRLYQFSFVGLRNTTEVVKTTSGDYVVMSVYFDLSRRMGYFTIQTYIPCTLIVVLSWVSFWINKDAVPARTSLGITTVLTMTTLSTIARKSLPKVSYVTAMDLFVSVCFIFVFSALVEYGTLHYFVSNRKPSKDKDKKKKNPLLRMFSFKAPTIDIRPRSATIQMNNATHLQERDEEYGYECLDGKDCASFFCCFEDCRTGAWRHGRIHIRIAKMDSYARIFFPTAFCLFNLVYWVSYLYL
# T1 sequence (P31644 whole entry): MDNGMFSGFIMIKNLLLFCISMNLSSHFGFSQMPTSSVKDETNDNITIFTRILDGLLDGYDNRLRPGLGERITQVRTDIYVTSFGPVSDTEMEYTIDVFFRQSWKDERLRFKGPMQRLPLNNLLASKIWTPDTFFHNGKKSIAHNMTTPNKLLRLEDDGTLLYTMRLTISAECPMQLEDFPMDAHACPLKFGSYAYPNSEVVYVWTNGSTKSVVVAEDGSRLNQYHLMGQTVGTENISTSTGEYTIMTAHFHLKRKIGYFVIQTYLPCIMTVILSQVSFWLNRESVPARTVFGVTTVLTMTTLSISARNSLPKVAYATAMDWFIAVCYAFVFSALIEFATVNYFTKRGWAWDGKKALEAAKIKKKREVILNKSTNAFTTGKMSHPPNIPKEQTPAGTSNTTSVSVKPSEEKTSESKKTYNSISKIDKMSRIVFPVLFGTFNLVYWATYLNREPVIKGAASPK
# [2] = biological target: T2, Sodium- and chloride-dependent GABA transporter 3 (Homo sapiens) (UniProt P48066); test: Inhibition of human GAT3 expressed in Flp-In CHO cells assessed as reduction in [3H]GABA uptake at 100 uM incubated for 3 mins by liquid scintillation counting method relative to control
# T2 sequence (whole entry): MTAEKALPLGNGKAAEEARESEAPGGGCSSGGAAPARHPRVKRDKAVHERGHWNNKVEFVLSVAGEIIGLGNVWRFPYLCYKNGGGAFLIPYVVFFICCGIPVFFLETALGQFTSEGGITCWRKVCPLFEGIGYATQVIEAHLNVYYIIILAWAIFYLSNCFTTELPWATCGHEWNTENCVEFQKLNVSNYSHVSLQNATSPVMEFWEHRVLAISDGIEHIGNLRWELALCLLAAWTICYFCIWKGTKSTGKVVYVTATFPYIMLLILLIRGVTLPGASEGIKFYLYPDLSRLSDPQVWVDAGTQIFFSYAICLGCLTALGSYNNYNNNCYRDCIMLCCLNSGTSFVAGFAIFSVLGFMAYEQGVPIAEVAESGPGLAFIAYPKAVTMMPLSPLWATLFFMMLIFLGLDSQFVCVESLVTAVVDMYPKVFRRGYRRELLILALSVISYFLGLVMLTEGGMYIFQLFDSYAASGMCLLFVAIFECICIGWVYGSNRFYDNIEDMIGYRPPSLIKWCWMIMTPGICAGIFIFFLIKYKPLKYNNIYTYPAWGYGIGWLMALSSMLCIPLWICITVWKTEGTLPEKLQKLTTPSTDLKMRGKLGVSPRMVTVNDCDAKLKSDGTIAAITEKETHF
# [3] = biological target: Gamma-aminobutyric acid receptor subunit alpha-4/beta-2/gamma-2 (Homo sapiens, UniProt P18507+P47870+P48169); test: Agonist activity at recombinant human GABA-A alpha4beta2gamma2S receptor transiently expressed in human tsA201 cells incubated for 30 mins and measured up to 90 secs by FMP dye based FLIPR membrane potential blue assay; conditions: read-out: EC50
# [4] = biological target: Gamma-aminobutyric acid receptor subunit rho-1 (Homo sapiens, UniProt P24046); test: Agonist activity at recombinant human GABA-A rho-1 receptor transiently expressed in human tsA201 cells assessed as GABA-induced maximum response incubated for 30 mins and measured up to 90 secs by FMP dye based FLIPR membrane potential blue assay relative to GABA
# [5] = biological target: T3, GABA-A receptor; alpha-1/beta-2/gamma-2 (Homo sapiens, UniProt P14867+P47870+P18507); test: Agonist activity at recombinant human GABA-A alpha1beta2gamma2S receptor transiently expressed in human tsA201 cells incubated for 30 mins and measured up to 90 secs by FMP dye based FLIPR membrane potential blue assay
# T3 sequence (P14867 whole entry): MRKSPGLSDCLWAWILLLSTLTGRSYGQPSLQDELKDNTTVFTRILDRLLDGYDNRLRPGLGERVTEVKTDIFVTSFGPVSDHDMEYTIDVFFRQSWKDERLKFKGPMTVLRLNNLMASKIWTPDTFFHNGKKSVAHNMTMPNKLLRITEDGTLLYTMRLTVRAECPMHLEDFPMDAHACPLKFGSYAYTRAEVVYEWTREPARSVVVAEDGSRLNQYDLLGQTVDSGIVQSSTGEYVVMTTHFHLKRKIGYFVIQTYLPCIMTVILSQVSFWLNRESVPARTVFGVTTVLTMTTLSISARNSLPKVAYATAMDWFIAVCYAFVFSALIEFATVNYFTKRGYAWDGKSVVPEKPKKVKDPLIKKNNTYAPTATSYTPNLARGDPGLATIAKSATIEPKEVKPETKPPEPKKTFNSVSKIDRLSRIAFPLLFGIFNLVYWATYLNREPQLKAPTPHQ
# T3 sequence (P47870 whole entry): T1 sequence (P47870 whole entry)
# T3 sequence (P18507 whole entry): T1 sequence (P18507 whole entry)
# Sequence of Gamma-aminobutyric acid receptor subunit rho-1 (P24046 whole entry): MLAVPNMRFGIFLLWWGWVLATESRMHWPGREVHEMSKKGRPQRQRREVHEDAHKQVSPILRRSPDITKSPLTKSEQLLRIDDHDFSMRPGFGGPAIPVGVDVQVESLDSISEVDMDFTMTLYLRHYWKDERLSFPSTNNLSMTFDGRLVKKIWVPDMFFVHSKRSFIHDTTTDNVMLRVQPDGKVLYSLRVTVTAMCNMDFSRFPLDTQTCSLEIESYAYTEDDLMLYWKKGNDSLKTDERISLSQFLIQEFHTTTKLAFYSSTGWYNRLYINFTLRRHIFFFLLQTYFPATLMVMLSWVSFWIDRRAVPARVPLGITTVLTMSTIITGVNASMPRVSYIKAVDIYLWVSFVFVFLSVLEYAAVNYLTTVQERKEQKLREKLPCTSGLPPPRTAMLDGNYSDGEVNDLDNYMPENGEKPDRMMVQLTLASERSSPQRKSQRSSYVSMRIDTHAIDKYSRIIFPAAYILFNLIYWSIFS
# Sequence of Gamma-aminobutyric acid receptor subunit alpha-4/beta-2/gamma-2 (P48169 whole entry, one chain of several): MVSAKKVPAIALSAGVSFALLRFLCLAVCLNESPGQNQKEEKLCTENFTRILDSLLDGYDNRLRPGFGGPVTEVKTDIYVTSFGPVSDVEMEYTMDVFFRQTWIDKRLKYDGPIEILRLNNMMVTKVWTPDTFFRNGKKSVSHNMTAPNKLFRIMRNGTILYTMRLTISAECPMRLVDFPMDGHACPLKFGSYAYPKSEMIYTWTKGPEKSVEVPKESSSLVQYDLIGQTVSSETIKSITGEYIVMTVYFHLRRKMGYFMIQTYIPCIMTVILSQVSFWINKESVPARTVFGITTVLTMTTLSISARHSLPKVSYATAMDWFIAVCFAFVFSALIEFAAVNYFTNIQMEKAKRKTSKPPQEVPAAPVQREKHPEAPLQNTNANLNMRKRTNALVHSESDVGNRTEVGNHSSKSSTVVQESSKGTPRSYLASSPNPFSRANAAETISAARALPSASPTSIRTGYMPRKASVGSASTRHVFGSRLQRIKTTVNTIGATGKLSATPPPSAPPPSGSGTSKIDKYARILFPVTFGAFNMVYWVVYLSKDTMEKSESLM
Compound,EC50 [1],inhibition [2],EC50 [3],Rmax [4],EC50 [5]
C[C@@H]1SC(N)=N[C@@H]1CC(=O)O (relative stereo),8.2 µM,> 30%,,,Not Active
CC(C(=O)O)C1CSC(N)=N1 (stereo in doubt; l-10b),11 µM,,,,Not Active
C[C@H]1SC(N)=N[C@@H]1CC(=O)O (relative stereo),17 µM,> 30%,,inactive,Not Active
C[C@@H](C(=O)O)[C@@H]1CSC(N)=N1 (relative stereo),3 µM,> 30%,,35%,
O=C(O)C[C@@H]1CCNC1,24 µM,> 30%,,inactive,Not Active

# The next compounds have a lower EC50 [1] than those just listed; values first:
EC50 [1],inhibition [2],EC50 [3],Rmax [4],EC50 [5],Compound
2.7 µM,,26 µM,,,CC(C(=O)O)C1CSC(N)=N1 (stereo in doubt; l-10a)
2.6 µM,> 30%,,,,C[C@@H](C(=O)O)[C@H]1CSC(N)=N1 (relative stereo)
1.6 µM,> 30%,14 µM,64%,,NC1=NC(CC(=O)O)CN1 (stereo unspecified)
0.94 µM,> 30%,8.1 µM,101%,,O=C(O)C[C@H]1CCNC1
0.79 µM,> 30%,7.9 µM,45%,,O=C(O)CC1CNC=N1 (stereo unspecified)
0.22 µM,> 30%,1.3 µM,43%,,NC1=NC(CC(=O)O)CS1 (stereo unspecified)
